Measurements taken from patent US20080025986A1, “Methods of Treating Tnf-Mediated Disorders” (priority 2003, published 2008).

Experiments:
Format in all cases: cell-based
ERK = experiment: Western blot, TNF-induced ERK activation in cells; conditions: TNF cascade, P<0.01
Description: (§1) To explore the possibility that Pirfenidone could be used to treat NASH, the effects of pirfenidone on cells stimulated with Insulin in the presence or absence of TNF-α were examined.
(§2) When cells were treated with Pirfenidone, TNF-α mediated Insulin resistance was ameliorated. […] More specifically, Pirfenidone decreased ERK activation by 7-fold, p38 MAPK by 2-fold and RAF activation by 2-fold (P<0.01 for all observations). In addition, Pirfenidone decreased the TNF-α mediated phosphorylation of the transcription activation factor CREB by 2-fold (P<0.01). […] In addition, Pirfenidone increased insulin-induced phosphorylation of IRS1. […] The results are depicted in FIGS. 3 and 4. FIG. 3 depicts inhibition of MAPK by pirfenidone. FIG. 4 depicts enhancement of insulin signaling by pirfenidone.
(§3) FIG. 5 depicts various downstream signaling events that are triggered by TNF binding to a TNF receptor. TNF-mediated activation of various serine-threonine kinases are differentially affected by pirfenidone. Therefore, activation of transcription factors downstream of a given kinase will be differentially affected by pirfenidone. FIG. 6 depicts pirfenidone inhibition of TNF-induced ERK activation. FIG. 7 depicts pirfenidone inhibition of TNF-induced p38 MAPK activation. FIG. 8 depicts pirfenidone inhibition of TNF-induced activation of the transcription factor CREB. […]

p38 MAPK = experiment: Western blot, TNF-induced p38 MAPK activation in cells; conditions: TNF cascade, P<0.01
Description: as §1, §2, §3

RAF = experiment: Western blot, TNF-induced RAF kinase activation in cells; conditions: TNF cascade, P<0.01
Description: as §1, §2, §3

CREB = experiment: TNF-α mediated phosphorylation/activation of transcription factor CREB
Description: as §1, §2, §3

IRS1 = experiment: Insulin signaling in cells stimulated with insulin in the presence or absence of TNF-α
Description: as §1, §2

AKT = experiment: TNF-induced activation of AKT; conditions: FIG. 10
Description: (§4) FIG. 5 depicts various downstream signaling events that are triggered by TNF binding to a TNF receptor. TNF-mediated activation of various serine-threonine kinases are differentially affected by pirfenidone. Therefore, activation of transcription factors downstream of a given kinase will be differentially affected by pirfenidone. FIG. 6 depicts pirfenidone inhibition of TNF-induced ERK activation. FIG. 7 depicts pirfenidone inhibition of TNF-induced p38 MAPK activation. FIG. 8 depicts pirfenidone inhibition of TNF-induced activation of the transcription factor CREB. FIG. 9 depicts pirfenidone inhibition of TNF-induced activation of RAF kinase. FIG. 10 depicts pirfenidone inhibition of TNF-induced activation of AKT. FIG. 11 depicts pirfenidone potentiation of TNF-induced JNK activation.

JNK = experiment: TNF-induced JNK activation; conditions: FIG. 11
Description: as §4
(§5) While phosphorylation of CREB is diminished due to decreased activity of p38 in the presence of pirfenidone, phosphorylation of the JNK-phosphorylated transcription factor ATF2 is potentiated in the presence of pirfenidone. FIG. 12 depicts pirfenidone potentiation of ATF2. Thus, pirfenidone potentiates TNF-induced activation of the JNK kinase pathway.

ATF2 = experiment: Phosphorylation of JNK-phosphorylated transcription factor ATF2; conditions: FIG. 12
Description: as §5

AP-1 = AP-1 activation

Q: `Cc1ccc(=O)n(-c2ccccc2)c1` [Pirfenidone, 5-methyl-1-phenyl-2-(1H)-pyridone] was tested. Which “decrease of ERK activation” value (ERK) did it give?
A: 7 fold

Q: And the “decrease of p38 MAPK activation” value (p38 MAPK)?
A: 2 fold

Q: And the “decrease of RAF activation” value (RAF)?
A: 2 fold

Q: And the “decrease of TNF-α mediated phosphorylation of CREB” value (CREB; P<0.01)?
A: 2 fold

Q: And the “upper limit of inhibition of CREB activation” value (CREB; at maximal pirfenidone concentrations)?
A: ≤ 75%

Q: What about the “effect on TNF-α mediated insulin resistance” value (IRS1; cells treated with TNF-α) of the same compound?
A: ameliorated

Q: What about the “effect on TNF-α-mediated inhibition of insulin-induced IRS1 tyrosine phosphorylation” value (IRS1; insulin plus TNF-α) of the same compound?
A: blocks

Q: What about the “effect on insulin-induced phosphorylation of IRS1” value (IRS1; insulin stimulation) of the same compound?
A: increased

Q: And the “effect on TNF-induced activation of AKT” value (AKT)?
A: inhibition

Q: What about the “effect on TNF-induced JNK activation” value (JNK) of the same compound?
A: potentiation

Q: What about the “effect on phosphorylation of ATF2” value (ATF2) of the same compound?
A: potentiated

Q: What about the “effect on AP-1 activation” value (AP-1) of the same compound?
A: potentiates
